Experimental data reported in patent US9066938B2, “GPBP-1 inhibition and its therapeutic use” (Fibrostatin S.L., priority 2012, dated 2015).
Where two headings read alike, the source gives them in different places.

Tests used:
A549 cells = format: cell-based; settings: for Activity as enhancer of doxorubicin-induced cell death, relative activity symbol: A549 cell cultures; for toxicity of the compound by itself in A549 cultures: 50 μM
Method: FIG. 2. […] Cells were seeded in 96-well plates and treated with the indicated compound combinations. The cellular viability (cell number) was measured with alamarBlue® and arbitrary units of fluorescence after 36 h of treatment (vertical axis).
FIG. 7. […] A549 cells were seeded on 96-well culture plates and after 4 h were treated with the indicated concentrations of doxorubicin in absence or presence of T12 (50 μM) and/or CFTR-inhibitor-172 (25 μM). Cells were cultured for additional 36 h and cell viability assessed as in FIG. 2.
A549 human lung adenocarcinoma cancer cells (CLS Cell Lines Service) were used as an ex vivo model for the assessment of anti-tumor activity of specific compounds. Unless otherwise indicated A549 cells were cultured in DMEM: Ham's F12 medium supplemented with 2 mM L-glutamine and 10% fetal bovine serum. A549 cells resistant to doxorubicin (A549-DR) were obtained treating cells with 1 μM for 4 weeks. A549 cells were transfected with a plasmid that expresses GPBP-1 and further selected with G418 (Invitrogen) to obtain a cell line (A549-GPBP) that constitutively expresses GPBP-1.
Cytotoxicity assays were performed with alamarBlue® reagent (Invitrogen) according to manufacturer's instructions. A549 cells were seeded on 96-well culture plates (7,500 cells/well) and allowed to settle during 4 h. Then, cells were cultured with individual peptidomimetics at concentrations ranging from 0 to 50 μM, in presence of doxorubicin at concentrations ranging from 0 to 10 μM for 36 h. JLSM cells were harvested by treatment with 0.25% trypsin (Lonza) and plated on collagen I coated 96-well black culture plate (Perkin Elmer) at a density of 10.000 cells per cm^2. After 4 h settling, cells were treated with different peptidomimetics (with or without doxorubicin) for 36 h. Subsequently alamarBlue® reagent was added and incubation maintained for 3 h. Fluorescence was measured using 560EX nm/590EM nm filter settings with a SpectraMax GeminiXPS (Molecular Devices). Blank wells containing media were used to determine background fluorescence.
The activity shown for each compound in Table 1 is the factor by which doxorubicin LC50 is reduced by the compound at a 50-μM concentration in A549 cell cultures. […] The symbols −, −/+, +, ++, +++, ++++ in the third column are used to show relative activities of compounds in a simplified way.

[1] = tested on: CSC derived from a uterine cancer; assay: Sensitivity of CSC derived from a uterine cancer; format: cell-based; settings: data not shown
human recombinant GPBP-1 = molecular target: T1, human recombinant GPBP-1 (Homo sapiens, UniProt Q9Y5P4); settings: Saus et al. 2008, 2010; cited from earlier work
T1 construct: made in house; host or cells: Pichia pastoris
T1 sequence (Q9Y5P4 1-624): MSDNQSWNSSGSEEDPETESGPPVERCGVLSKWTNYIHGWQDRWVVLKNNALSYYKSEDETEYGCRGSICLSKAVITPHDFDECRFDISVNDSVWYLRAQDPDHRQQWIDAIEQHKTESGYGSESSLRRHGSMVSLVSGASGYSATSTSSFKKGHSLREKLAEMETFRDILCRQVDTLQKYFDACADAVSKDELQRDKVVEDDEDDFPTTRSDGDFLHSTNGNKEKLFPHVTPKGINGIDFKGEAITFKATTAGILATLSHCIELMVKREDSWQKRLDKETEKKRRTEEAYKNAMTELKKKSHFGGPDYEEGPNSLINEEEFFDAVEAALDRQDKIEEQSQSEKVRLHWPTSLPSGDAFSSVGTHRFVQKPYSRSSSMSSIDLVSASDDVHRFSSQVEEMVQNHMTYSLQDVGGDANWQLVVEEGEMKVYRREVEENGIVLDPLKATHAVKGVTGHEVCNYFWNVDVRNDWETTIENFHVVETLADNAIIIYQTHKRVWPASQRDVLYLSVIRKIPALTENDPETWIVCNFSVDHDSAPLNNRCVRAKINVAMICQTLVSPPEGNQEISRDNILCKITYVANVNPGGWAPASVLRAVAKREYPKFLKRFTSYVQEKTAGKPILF

Molecule	Activity as enhancer of doxorubicin-induced cell death, relative activity symbol (A549 cells; compound at 50 μM)	also measured
Cc1cccc(-c2ccc(-c3ccc(O)cc3CCC(=O)O)cc2CO)c1	−/+	
Cc1cccc(-c2ccc(-c3ccc(O)cc3CCC(=O)O)cc2C)c1	++	
Cc1cccc(-c2ccc(-c3ccc(O)cc3CCC(=O)O)cc2CF)c1	++	
Cc1cccc(-c2ccc(-c3ccc(O)cc3CCC(=O)O)cc2C(F)F)c1	++	
COc1ccc(-c2ccc(-c3cccc(C)c3)c(CO)c2)c(CCC(=O)O)c1	−/+	
O=C(O)CCc1cc(O)ccc1-c1ccc(-c2cccc(C(F)(F)F)c2)c(CO)c1	−	
Cc1cc(-c2ccc(O)cc2CCC(=O)O)ccc1-c1cccc(C(F)(F)F)c1	+	
O=C(O)CCc1cc(O)ccc1-c1ccc(-c2cccc(C(F)(F)F)c2)c(CF)c1	++++	
O=C(O)CCc1cc(O)ccc1-c1ccc(-c2cccc(C(F)(F)F)c2)c(C(F)F)c1	++	
COc1ccc(-c2ccc(-c3cccc(C(F)(F)F)c3)c(CO)c2)c(CCC(=O)O)c1	+	
COc1ccc(-c2ccc(-c3cccc(C(F)(F)F)c3)c(C)c2)c(CCC(=O)O)c1	+++	
O=C(O)CCc1cc(O)ccc1-c1ccc(-c2cccnc2)c(CO)c1	+	
O=C(O)CCc1cc(O)ccc1-c1ccc(-c2cccnc2)c(CF)c1	+	
O=C(O)CCc1cc(O)ccc1-c1ccc(-c2cccnc2)c(C(F)F)c1	+	
C[n+]1cccc(-c2ccc(-c3ccc(O)cc3CCC(=O)[O-])cc2CO)c1	−	
COc1ccc(-c2ccc(-c3cccnc3)c(CO)c2)c(CCC(=O)O)c1	−	
COc1ccc(-c2ccc(-c3cccnc3)c(C)c2)c(CCC(=O)O)c1	++++	
COc1ccc(-c2ccc(-c3cccnc3)c(CF)c2)c(CCC(=O)O)c1	+++	
Cc1cccc(-c2ccc(-c3ccc(OCC(=O)O)cc3CCC(=O)O)cc2C)c1	−	
CCCCCCCCCCCCCCCC(=O)Oc1ccc(-c2ccc(-c3cccc(C)c3)c(C)c2)c(CCC(=O)O)c1	−	
CCOC(=O)CCc1cc(O)ccc1-c1ccc(-c2cccc(C(F)(F)F)c2)c(C)c1	−?	
Cc1cccc(-c2ccc(-c3ccc(O)cc3C(C)C)cc2CCC(=O)O)c1	+	
Cc1cccc(-c2ccc(-c3ccc(O)cc3CCO)cc2CCC(=O)O)c1	+	
COc1ccc(-c2ccc(-c3ccc(OC)c(C)c3)c(C)c2)c(CCC(=O)O)c1	++++	
CCOC(=O)CCc1cc(O)ccc1-c1ccc(-c2cccnc2)c(CO)c1 [13c]		toxicity of the compound by itself in A549 cultures (A549 cells): significantly toxic; Activity as enhancer of doxorubicin-induced cell death, relative activity symbol (A549 cells; compound at 10 μM): +
CCCOc1ccc(-c2ccc(-c3cccc(C)c3)c(C)c2)c(CCC(=O)O)c1 [24a]		toxicity of the compound by itself in A549 cultures (A549 cells): significantly toxic; Activity as enhancer of doxorubicin-induced cell death, relative activity symbol (A549 cells; compound at 25 μM): ++
CCCOc1ccc(-c2ccc(-c3cccc(C(F)(F)F)c3)c(C)c2)c(CCC(=O)O)c1 [24c]		toxicity of the compound by itself in A549 cultures (A549 cells): significantly toxic; Activity as enhancer of doxorubicin-induced cell death, relative activity symbol (A549 cells; compound at 10 μM): ++
O=C(O)c1ccc(C=C2SC(=S)N(c3cccc(C(F)(F)F)c3)C2=O)cc1 [CFTR/ABCC7 inhibitor 172, 3-[(3-Trifluoromethyl)phenyl]-5-[(4-carboxyphenyl)methylene]-2-thioxo-4-thiazolidinone, reference compound]		cell viability in cultures treated with T12 with or without doxorubicin (A549 cells; CFTR-inhibitor-172 25 μM, T12 50 μM, 36 h): significantly reduced cell viability
COc1ccc(-c2ccc(-c3ccc(OC)c(Cl)c3)c(C)c2)c(CCC(=O)O)c1 [T55]		sensitivity of uterine cancer CSC to the compound [1]: highly sensitive; Activity as enhancer of doxorubicin-induced cell death, relative activity symbol (A549 cells; compound at 25 μM): ++++
LATLSHCIELMVKR (SEQ ID NO: 8) [Q2, isolated peptide representing 260SHCIE264 and flanking regions of GPBP-1]		inhibition of GPBP-1 kinase activity (human recombinant GPBP-1): efficiently inhibits
